Reference: patent US20080269282A1, “Compounds for Inhibiting Copper-Containing Amine Oxidases and Uses Thereof” (GENMEDICA THERAPEUTICS SL, priority 2004, published 2008)

Biological target: T1, Human SSAO (Homo sapiens, UniProt Q16853)
T1 construct: Human or mice adipose tissue homogenates, used as a source of SSAO activity; from tissue; host or cells: human adipose tissue homogenate
T1 sequence (Q16853 1-763): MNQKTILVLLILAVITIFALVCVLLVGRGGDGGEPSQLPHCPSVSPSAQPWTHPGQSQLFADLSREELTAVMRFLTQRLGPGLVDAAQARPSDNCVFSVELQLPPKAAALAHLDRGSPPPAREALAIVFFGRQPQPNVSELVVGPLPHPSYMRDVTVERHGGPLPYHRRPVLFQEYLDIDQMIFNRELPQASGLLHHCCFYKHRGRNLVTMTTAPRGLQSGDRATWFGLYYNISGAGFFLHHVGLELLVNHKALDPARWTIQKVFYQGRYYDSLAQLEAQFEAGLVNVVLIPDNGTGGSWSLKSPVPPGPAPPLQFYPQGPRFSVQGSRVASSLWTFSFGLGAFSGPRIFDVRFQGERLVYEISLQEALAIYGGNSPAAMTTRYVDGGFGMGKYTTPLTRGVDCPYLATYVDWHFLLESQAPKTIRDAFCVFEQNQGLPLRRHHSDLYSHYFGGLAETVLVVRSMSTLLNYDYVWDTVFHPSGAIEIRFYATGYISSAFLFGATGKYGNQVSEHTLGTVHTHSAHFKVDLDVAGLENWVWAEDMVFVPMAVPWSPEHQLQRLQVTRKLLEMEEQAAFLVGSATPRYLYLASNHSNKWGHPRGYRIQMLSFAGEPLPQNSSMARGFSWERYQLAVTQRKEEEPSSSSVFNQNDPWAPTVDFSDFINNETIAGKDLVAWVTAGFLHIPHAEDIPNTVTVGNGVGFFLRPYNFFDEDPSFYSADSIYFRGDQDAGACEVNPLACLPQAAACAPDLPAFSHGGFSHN
Test: SSAO activity determination (Amplex Red/HRP detection of H2O2 from benzylamine oxidation)
Assay type: biochemical
Conditions: human adipose tissue homogenate, benzylamine substrate, 37° C., 20 min preincubation
Method: SSAO activity determination: All assays were performed at 37° C. with SSAO from human or mice adipose tissue. The enzyme activity was measured through detection of hydrogen peroxide formed by the oxidation of benzylamine. This method is based on the horseradish peroxidase catalyzed hydrogen peroxide oxidation of 10-acetyl-3,7-dihydroxyphenoxazine (Molecular Probes A-6550), that produces resorufin a highly fluorescent product (excitation, 545 nm; emission, 590 nm) (Zhou and Panchuk-Voloshina, 1997). Human or mice adipose tissue homogenates, used as a source of SSAO activity, were preincubated in 96 well microplates for 20 min at 37° C. in 180 μL of 200 mM Phosphate buffer and H2O2-detecting mixture containing horseradish peroxidase (final concentration 1 U/mL) and Amplex Red reagent (60 μM) and different concentrations of inhibitors when necessary. […] Fluorescence intensity of the samples was measured continuously during 1 h (excitation, 545 nm; emission, 590 nm) and H2O2 concentration was calculated from calibration curves generated by serial dilutions of standard H2O2. […]
The inhibition was measured as % decrease of the signal compared to a control without inhibitor. Blank values in absence of substrates were subtracted from the fluorescence for each experimental condition. The IC50 shown in Table 1 were calculated with GraphPad Prism 4 program.

With `Cc1[nH]c2ccccc2c1CC(=O)NCC(=O)NO` [compound 4] the IC50 was 0.033 ± 0.006 µM.
